Several values for one entry are separate records, joined by “and”; a condition that tells them apart may be missing. Equal entries are not always repeated.

One experiment deals with PI3Kα (Homo sapiens, UniProt P42336). Put plainly: PI3K kinase activity inhibition assay. It is filed as biochemical. The settings on record: Kinase-Glo Plus ATP detection, read-out: IC50 against PI3K. The protocol: PI3Kα kinase activity was determined in the presence and absence of a test compound. The test compound was dissolved in DMSO and diluted serially with an ATP solution (30 μm ATP, 50 mM HEPES, pH 7.4, 50 mM NaCl, 0.05% CHAPS, 10 mM MgCl2, and 5 mM dithiothreitol [DTT]). First, 7 μl each of the serially diluted test compound solutions was added to each well of a black 384-well plate. Subsequently, 7 μl of a phosphatidylinositol 4,5-bisphosphate (PIP2) solution (45 μm PIP2, 50 mM HEPES, pH 7.4, 50 mM NaCl, 0.05% CHAPS, 10 mM MgCl2, and 5 mM DTT) was added to each well of the 384-well plate. Finally, 7 μl of a solution containing PI3Kα (50 nM PI3Kα, 50 mM HEPES, pH 7.4, 50 mM NaCl, 0.05% CHAPS, 10 mM MgCl2, and 5 mM DTT) was added to each well of the 384-well plate to initiate a reaction. The mixture was reacted at room temperature for 2 hours and then 21 μl of the Kinase-Glo Plusreagent (Promega) was, added to each well of the 384-well plate to terminate the reaction. After the termination of the reaction, the solution was left standing for 15 minutes and then luminescence was measured with ARVO (PerkinElmer Co., Ltd.) to detect ATP remaining in the reaction solution.
The amount of ATP consumed in the reaction was obtained for each well and used as an indicator of PI3Kαkinase activity. The PI3Kα kinase activity in wells not containing the test compound was calculated by the following formula (1). Furthermore, the PI3Kα kinase activity in wells containing the test compound was calculated by the following formula (2). The PI3Kα inhibitory activity (%) of the test compound was calculated by the following formula (3). PI3Kα kinase activity in wells not containing the test compound=B−C (1) PI3Kα kinase activity in wells containing the test compound=B−P (2) PI3Kα inhibitory activity (%) of test compound=100−100×[(B−P)/(B−C)] (3) B: Measured value in wells not containing PI3Kα or the test compound C: Measured value in wells containing PI3Kα and not containing the test compound P: Measured value in wells containing PI3Kα and the test compound
Furthermore, an optimal curve was calculated with Graph Pad Prism 4 using concentrations of the serially diluted test compound solutions and PI3Kα inhibitory activity (%) at each concentration to obtain the concentration showing 50% inhibition as the IC50 value of PI3Kα inhibitory activity.
On the technique in general: Kinase-Glo reads ATP consumption through a luciferase reaction.

Experiment [1] has as its target T1, human mTOR (His-tagged mTOR (1362C)) (Homo sapiens, UniProt P42345).
T1 construct: the 1362 to 2549 amino acid portion on the C terminus side of human mTOR; His tag (N); made in house
Put plainly: mTOR kinase activity inhibition assay. It is filed as biochemical. The settings on record: HTRF, read-out: IC50 against mTOR. As to the method: The mTOR kinase activity was determined in the presence and absence of a test compound. A substrate peptide is phosphorylated by mTOR kinase activity. A complex of streptavidin-XL665 and anti-phosphorylated S6K (Thr389) antibody-anti-mouse IgG-cryptate binds to this phosphorylated peptide. At this time, irradiation of excitation light induces transfer of fluorescence resonance energy from the excited cryptate to XL665, emitting fluorescence at 665 nm. Utilizing this principle, mTOR kinase activity was detected. When the mTOR inhibitor is present, phosphorylation of a substrate peptide is inhibited, and the biding of the above-mentioned complex to the substrate peptide is inhibited.
A His tag was introduced into the N terminus end of the 1362 to 2549 amino acid portion on the C terminus side of human mTOR, and a cell line was prepared, so that His-tagged mTOR should be constantly expressed in a HEK293 cell. A cell lysate was prepared from this HEK293 cell which constantly expressed His-tagged mTOR (1362C), and a crude product of His-tagged mTOR (1362C) was obtained by a usual method utilizing His tag.
Subsequently, an mTOR enzyme solution was prepared which contained the above-mentioned His-tagged mTOR (1362C) enzyme and 8 μg/ml biotinylated peptide (Biotin-Ahx-[…]-amide [Sigma]), as well as 50 mM HEPES (pH 7.5), 20 mM MnCl2, 1 mg/ml BSA, a suitable amount of protease inhibitor cocktail (Complete EDTA free, Roche Ltd.), 100 ng/ml calyculin A, and 4 μg/ml cantharidin as other components.
The test compound was dissolved in dimethyl sulfoxide (DMSO) and serially diluted with 20 μm ATP solution (50 mM HEPES (pH 7.5), 20 μM ATP) to obtain concentrations required for the assay. 5 μl of this compound solution was added to each well of a 384-well small volume white plate manufactured by Greiner Bio-One Co., Ltd.
5 μl of the mTOR enzyme solution was added to the above-mentioned well containing the test compound and the resulting mixture was left standing for 3 hours room temperature to proceed an enzymatic reaction.
The same procedure was performed using a solution obtained by dissolving DMSO in 20 μM ATP solution as a positive control and a solution obtained by dissolving DMSO in 50 mM HEPES buffer (pH 7.5) as a negative control.
After the enzymatic reaction, 5 μl each of an europium solution (a solution obtained by dissolving anti-mouse IgG-cryptate [SCETI Medical Labo K.K.] and anti-phosphorylation S6K [Thr389] antibody [Cell Signaling Technology Inc.] in 50 mM HEPES [pH 7.5], 100 mM EDTA, and 1.5 mg/ml BSA) and an XL665 solution (a solution obtained by dissolving Streptavidin-XL 665 [SCETI Medical Labo K.K.] in 50 mM HEPES [pH 7.5], 100 mM EDTA, 0.8 M KF, and 1.5 mg/ml BSA) were added in this order and mixed and the resulting mixture was left standing overnight at 4° C. On the following day, the mixture was returned to room temperature and then irradiated with 337-nm excitation light and fluorescence at 620 and 665 nm was measured with RUBYstar (BMG LABTECH JAPAN Ltd.).
mTOR inhibitory activity (%) was calculated using the ratio calculated from the measured values as an indicator of enzyme activity. Here, the ratio was calculated by the following formula (1). Ratio=10,000×fluorescence at 665 nm/fluorescence at 620 nm (1)
mTOR enzyme inhibitory activity (%) was calculated by the following formula (2). mTOR enzyme inhibitory activity (%)=100×[(P−S)/(P−N)] (2) P: Ratio in positive control well N: Ratio in negative control well S: Ratio in well containing the test compound
Furthermore, an optimal curve was created using the concentrations of the serially diluted test compound solutions and mTOR enzyme inhibitory activity (%) at each concentration to obtain the concentration showing 50% inhibition as the IC50 value of mTOR enzyme inhibitory activity.

In experiment [2] the test system is human endometrial cancer cell strain AN3CA. The experiment can be described thus: Cell growth inhibition test (MTT), AN3CA. Format: cell-based. The note with it: AN3-CA, 72 h, 3 days culture, read-out: concentration exhibiting anti-cell effect (GI50). As to the method:
(§1) After a cultured cancer cell strain was treated with a test compound for a predetermined period, a cell growth inhibition test was performed by measuring the living cell count by the 3-(4,5-dimethylthiazol-2-yl)-2,5-diphenyltetrazoliumbromide (MTT) method.
(§2) Human endometrial cancer cell strain AN3CA, human ovary cancer cell strain IGROV1, and human colon cancer cell strain HT29 were seeded in a 96-well plate at 5000, 1000, and 5000 cells, respectively, per well. On the following day of seeding, a test compound having a predetermined concentration was added and the culture was continued at 37° C. in 5% CO2 for 3 days. On the final day of culture, an MTT reaction solution was added and the resulting mixture was reacted for 4 hours to form formazan by dehydrogenases contained in living cells. Subsequently, the culture broth was removed, DMSO was added to solubilize formazan, and the amount of produced formazan was determined by measuring absorbance at 540 nm using a microplate reader.
(§3) Since correlations of the amount of produced formazan and the living cell count had been confirmed, the cell growth rate was calculated by the following formula. Cell growth rate (T/C %) after addition of test compound=100×[(B−C)/(A−C)] A: Absorbance of well not containing test compound (final culture day) B: Absorbance of well containing test compound (final culture day) C: Absorbance of well immediately before addition of test compound (following day of cell seeding)
(§4) Furthermore, the cell growth rate at each concentration of serially diluted test compound solutions was obtained, and the concentration of the test compound resulting in a 50% growth rate was obtained as the GI50 value from two concentrations including 50% therebetween and the growth rates were selected.

Experiment [3] deals with human ovary cancer cell strain IGROV1. Put plainly: Cell growth inhibition test (MTT), IGROV1. Format: cell-based. The settings on record: IGROV-1, 72 h, IGROV1, 3 days culture, read-out: concentration exhibiting anti-cell effect (GI50). As to the method:
as §1, §2, §3, §4

Experiment [4] relates to human colon cancer cell strain HT29. Put plainly: Cell growth inhibition test (MTT), HT29. Format: cell-based. The note with it: HT-29, 72 h, HT29, 3 days culture, read-out: concentration exhibiting anti-cell effect (GI50). The protocol:
as §1, §2, §3, §4

Chain of PI3Kα (P42336 whole entry, species assumed): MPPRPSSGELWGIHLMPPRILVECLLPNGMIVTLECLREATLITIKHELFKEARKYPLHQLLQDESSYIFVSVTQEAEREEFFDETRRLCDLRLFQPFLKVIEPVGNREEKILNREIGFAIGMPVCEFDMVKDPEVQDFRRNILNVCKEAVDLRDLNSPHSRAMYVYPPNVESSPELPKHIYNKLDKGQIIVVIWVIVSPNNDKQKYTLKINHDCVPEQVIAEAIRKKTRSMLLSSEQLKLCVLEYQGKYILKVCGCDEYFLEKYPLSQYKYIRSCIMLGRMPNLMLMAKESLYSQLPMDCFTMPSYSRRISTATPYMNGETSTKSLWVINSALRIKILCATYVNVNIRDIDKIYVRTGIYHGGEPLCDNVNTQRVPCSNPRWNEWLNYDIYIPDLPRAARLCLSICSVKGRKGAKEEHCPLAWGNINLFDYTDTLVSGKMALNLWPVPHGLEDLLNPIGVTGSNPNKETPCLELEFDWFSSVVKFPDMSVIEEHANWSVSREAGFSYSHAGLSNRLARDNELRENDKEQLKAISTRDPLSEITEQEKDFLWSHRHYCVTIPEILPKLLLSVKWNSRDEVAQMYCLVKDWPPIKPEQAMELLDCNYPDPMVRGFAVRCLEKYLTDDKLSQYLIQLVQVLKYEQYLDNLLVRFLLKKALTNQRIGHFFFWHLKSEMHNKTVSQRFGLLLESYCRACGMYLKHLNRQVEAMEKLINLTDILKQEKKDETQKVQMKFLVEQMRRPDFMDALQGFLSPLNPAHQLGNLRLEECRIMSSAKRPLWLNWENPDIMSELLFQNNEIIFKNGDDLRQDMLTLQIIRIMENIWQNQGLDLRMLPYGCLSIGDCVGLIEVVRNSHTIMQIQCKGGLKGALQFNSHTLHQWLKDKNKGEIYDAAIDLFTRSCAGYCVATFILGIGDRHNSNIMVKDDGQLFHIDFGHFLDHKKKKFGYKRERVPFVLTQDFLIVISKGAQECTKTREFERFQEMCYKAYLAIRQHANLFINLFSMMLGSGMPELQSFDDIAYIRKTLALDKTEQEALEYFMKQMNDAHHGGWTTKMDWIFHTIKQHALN
Chain of PI3Kα (P27986 whole entry partner, species assumed): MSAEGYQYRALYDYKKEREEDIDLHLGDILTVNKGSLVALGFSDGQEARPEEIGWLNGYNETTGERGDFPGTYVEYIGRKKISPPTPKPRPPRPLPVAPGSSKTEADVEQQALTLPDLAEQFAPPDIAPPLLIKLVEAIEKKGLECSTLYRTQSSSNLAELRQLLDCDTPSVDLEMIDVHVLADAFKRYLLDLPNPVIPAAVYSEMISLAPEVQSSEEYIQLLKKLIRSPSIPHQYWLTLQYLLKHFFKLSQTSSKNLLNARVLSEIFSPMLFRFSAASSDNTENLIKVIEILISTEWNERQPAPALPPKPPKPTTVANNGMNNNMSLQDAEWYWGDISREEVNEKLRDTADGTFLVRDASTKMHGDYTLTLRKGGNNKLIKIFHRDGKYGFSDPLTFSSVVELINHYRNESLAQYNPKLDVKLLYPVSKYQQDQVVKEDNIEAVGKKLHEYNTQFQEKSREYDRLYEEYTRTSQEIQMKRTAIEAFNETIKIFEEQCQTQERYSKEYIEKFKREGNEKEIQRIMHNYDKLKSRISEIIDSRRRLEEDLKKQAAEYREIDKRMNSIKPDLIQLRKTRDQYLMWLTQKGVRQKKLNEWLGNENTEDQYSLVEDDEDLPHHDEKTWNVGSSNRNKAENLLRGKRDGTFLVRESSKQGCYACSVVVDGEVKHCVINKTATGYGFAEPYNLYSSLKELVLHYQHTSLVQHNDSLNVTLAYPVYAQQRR
T1 sequence (P42345 1362-2549): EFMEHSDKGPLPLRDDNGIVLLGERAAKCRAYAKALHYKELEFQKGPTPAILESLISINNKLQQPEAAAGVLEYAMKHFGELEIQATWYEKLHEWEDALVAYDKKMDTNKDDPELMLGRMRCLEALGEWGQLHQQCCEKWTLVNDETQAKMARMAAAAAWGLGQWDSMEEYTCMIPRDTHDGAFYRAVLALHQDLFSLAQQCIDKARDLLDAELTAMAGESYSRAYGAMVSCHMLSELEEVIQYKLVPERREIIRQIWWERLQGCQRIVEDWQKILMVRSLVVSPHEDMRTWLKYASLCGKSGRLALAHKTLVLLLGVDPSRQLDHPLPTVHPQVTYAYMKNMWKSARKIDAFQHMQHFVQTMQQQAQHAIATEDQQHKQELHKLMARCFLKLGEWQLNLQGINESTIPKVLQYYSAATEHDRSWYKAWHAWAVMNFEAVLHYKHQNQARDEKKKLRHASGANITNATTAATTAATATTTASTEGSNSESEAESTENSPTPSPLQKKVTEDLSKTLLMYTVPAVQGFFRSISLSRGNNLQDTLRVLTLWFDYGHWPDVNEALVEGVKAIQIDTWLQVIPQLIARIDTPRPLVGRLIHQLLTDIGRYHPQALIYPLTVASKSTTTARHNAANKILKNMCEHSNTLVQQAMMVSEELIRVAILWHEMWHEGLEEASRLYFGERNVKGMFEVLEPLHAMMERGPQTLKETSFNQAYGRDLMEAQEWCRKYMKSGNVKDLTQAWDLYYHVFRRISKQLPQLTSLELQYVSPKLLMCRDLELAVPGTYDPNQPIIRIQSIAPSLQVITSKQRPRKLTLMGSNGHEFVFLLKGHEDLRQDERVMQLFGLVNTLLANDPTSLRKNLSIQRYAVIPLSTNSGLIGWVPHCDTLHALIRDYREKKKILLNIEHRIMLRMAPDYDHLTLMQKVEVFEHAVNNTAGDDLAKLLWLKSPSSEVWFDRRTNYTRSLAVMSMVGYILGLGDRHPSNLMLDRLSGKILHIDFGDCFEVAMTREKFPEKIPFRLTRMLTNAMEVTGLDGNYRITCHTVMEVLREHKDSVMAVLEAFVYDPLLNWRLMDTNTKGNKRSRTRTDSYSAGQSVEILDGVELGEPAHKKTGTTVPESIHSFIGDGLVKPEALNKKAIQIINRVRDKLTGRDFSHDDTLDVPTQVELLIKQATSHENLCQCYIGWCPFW

For `CC(C)Cn1c(N2C[C@H](C)NC[C@H]2C)nc2c(N3CCOCC3)nc(-c3cnc(N)nc3)nc21` (relative stereo) [Example 50, 5-[8-(trans-2,5-Dimethylpiperazin-1-yl)-9-isobutyl-6-morpholin-4-yl-9H-purin-2-yl]pyrimidin-2-amine], the values for the IC50 (on PI3Kα; in experiment [1]) were 10 to 20 nM and 30 to 100 nM, respectively. The GI50 in experiment [2], in experiment [3] and in experiment [4] was not above 5000 nM each time.
With `CNc1ncc(-c2nc(N3CCOCC3)c3nc(N4CCN(S(C)(=O)=O)CC4)n(CC4CC4)c3n2)cn1` [Example 4, 5-{9-(Cyclopropylmethyl)-8-[4-(methylsulfonyl)piperazin-1-yl]-6-morpholin-4-yl-9H-purin-2-yl}-N-methylpyrimidin-2-amine], the IC50 (as a rule, the midpoint of a concentration-inhibition curve) is 10 to 20 nM at PI3Kα and 30 to 100 nM in experiment [1]. Further, the GI50 in experiment [2], in experiment [3] and in experiment [4] was not above 5000 nM in each case.
As for `CS(=O)(=O)N1CCN(c2nc3c(N4CCOCC4)nc(-c4cnc(N)nc4)nc3n2CC2CCOC2)CC1` (stereo not shown) [Example 5, 5-{8-[4-(Methylsulfonyl)piperazin-1-yl]-6-morpholin-4′-yl-9-(tetrahydrofuran-3-ylmethyl)-9H-purin-2-yl}pyrimidin-2-amine], the IC50 at PI3Kα is 10 to 20 nM and 20 to 50 nM; in experiment [1] it was 10 to 30 nM. Also, the GI50 in experiment [2], in experiment [3] and in experiment [4] was not above 5000 nM each time.
On to `CS(=O)(=O)N1CCN(c2nc3c(N4CCOCC4)nc(-c4cnc(N)nc4C(F)(F)F)nc3n2CC2CC2)CC1` [Example 7, 5-{9-(Cyclopropylmethyl)-8-[4-(methylsulfonyl)piperazin-1-yl]-6-morpholin-4-yl-9H-purin-2-yl}-4-(trifluoromethyl)pyrimidin-2-amine], for which the IC50 at PI3Kα was less than 10 nM; in experiment [1], 100 to 500 nM. The GI50 in experiment [2], in experiment [3] and in experiment [4] was not above 5000 nM each time.
As to `CC(=O)N1CCN(c2nc3c(N4CCOCC4)nc(-c4cnc(N)nc4)nc3n2CC(F)(F)F)CC1` [Example 9, 5-[8-(4-Acetylpiperazin-1-yl)-6-morpholin-4-yl-9-(2,2,2-trifluoroethyl)-9H-purin-2-yl]pyrimidin-2-amine], the 50% inhibitory concentration (IC50) at PI3Kα is 10 to 20 nM; in experiment [1] it was less than 10 nM. In addition, the GI50 in experiment [2], in experiment [3] and in experiment [4] was not above 5000 nM in each case.
In the case of `CN1CCN(c2nc3c(N4CCOCC4)nc(-c4cnc(N)nc4)nc3n2CC(F)(F)F)CC1` [Example 13, 5-[8-(4-Methylpiperazin-1-yl)-6-morpholin-4-yl-9-(2,2,2-trifluoroethyl)-9H-purin-2-yl]pyrimidin-2-amine], the IC50 at PI3Kα is less than 10 nM; in experiment [1], 10 to 30 nM. For the same compound, the GI50 in experiment [2], in experiment [3] and in experiment [4] was not above 5000 nM throughout.
With `Cc1nc(N)ncc1-c1nc(N2CCOCC2)c2nc(N3C[C@@H](C)N[C@@H](C)C3)n(CC3CC3)c2n1` [Example 15, 5-[9-(Cyclopropylmethyl)-8-(cis-3,5-dimethylpiperazin-1-yl)-6-morpholin-4-yl-9H-purin-2-yl]-4-methylpyrimidin-2-amine], the IC50 was 20 to 50 nM on PI3Kα and 100 to 500 nM in experiment [1]. For the same compound, the GI50 in experiment [2], in experiment [3] and in experiment [4] was not above 5000 nM each time.
`Cc1nc(N(C)C)ncc1-c1nc(N2CCOCC2)c2nc(N3CCN(S(C)(=O)=O)CC3)n(CC3CC3)c2n1` [Example 44, 5-{9-(Cyclopropylmethyl)-8-[4-(methylsulfonyl)piperazin-1-yl]-6-morpholin-4-yl-9H-purin-2-yl}-N,N,4-trimethylpyrimidin-2-amine]: the IC50 in experiment [1] was not below 500 nM.
With `Cc1nc(N)ncc1-c1nc(N2CCOCC2)c2nc(N3CCC(C(N)=O)CC3)n(CC3CC3)c2n1` [Example 47, 1-[2-(2-Amino-4-methylpyrimidin-5-yl)-9-(cyclopropylmethyl)-6-morpholin-4-yl-9H-purin-8-yl]piperidine-4-carboxamide methanesulfonate], the IC50 at PI3Kα lay within 10 to 20 nM.

For the origin of these results see patent publication US8309546B2, “Morpholinopurine derivatives” (Daiichi Sankyo Company, Limited, priority 2008, dated 2012).
